Source: patent US9733262B2, “Method for measuring blood coagulation” (SEKISUI MEDICAL CO., LTD., priority 2009, dated 2017)
Counter-ions that a name gives are not always drawn.

Tested on: commercially available normal plasma (Coagtrol N)
Experiment: Fibrinogen measurement by thrombin time method: coagulation time and change in scattered light intensity of normal plasma after adding thrombin reagent
Type: biochemical
Conditions: for coagulation time versus addition amount (FIG. 3): agent added to HEPES buffer (pH 7.5) specimen diluent, buffer alone 4.6 seconds
Description: When a fibrinogen concentration in a plasma specimen is measured by a thrombin time method, in general, thrombin is added to plasma to measure a coagulation time, and the concentration is determined from a standard curve prepared using standard solutions having known fibrinogen concentrations. In the procedure, 90 μL of a specimen diluent are added to and mixed with 10 μL of specimen plasma, subsequently 50 μL of a thrombin-containing reagent are added as a blood coagulation activator-containing reagent, and a coagulation time is measured.
In this example, commercially available normal plasma (Coagtrol N, manufactured by Sysmex Corporation) as the plasma specimen, a Coagpia Fbg thrombin reagent (manufactured by Sekisui Medical Co., Ltd.) as the thrombin-containing reagent, and a full-automated blood coagulation time analyzer Coagrex 800 (manufactured by Sysmex Corporation) as a coagulation time measurement apparatus were used. This apparatus employs a scattered light detection method, and change data of scattered light intensity with time can also be obtained along with the coagulation time.
When an HEPES buffer (pH 7.5) was used as the specimen diluent, the commercially available normal plasma coagulated in several seconds (4.6 seconds).
Commercially available normal plasma was measured in the same manner as in Example 1 using the specimen diluent (HEPES buffer, pH 7.5) in which the amount of the blood coagulation time prolonging agent added was adjusted so as to obtain the similar coagulation time. The comparative results of the maximum of a change ΔH in scattered light intensity and of the simultaneous reproducibility of the measurements between in the conventional method and in the present invention were shown in Table 1.
A specimen diluent containing sodium chloride as the blood coagulation time prolonging agent was defined as a conventional method A and a specimen diluent further containing polyethylene glycol (molecular weight: 20000) (hereinafter, referred to as PEG 20000) as an enhancer of a change in light intensity in the conventional method A was defined as a conventional method B, and the specimen diluents were compared with a specimen diluent employing aminoguanidine hydrochloride (present invention) which served as both of the blood coagulation time prolonging agent and the enhancer of a change in light intensity. It should be noted that an HEPES buffer (pH 7.5) was used as a buffer in all of the cases. Further, the concentration of PEG 20000 to be added in the conventional method B was set to 0.1%, because a large amount of PEG 20000 could increase the viscosity of diluent and reduce the accuracy of sampling. The coagulation time of commercially available normal plasma was measured in the same manner as in Example 1 using each specimen diluent. The change of the scattered light intensity in the conventional method B with the addition of PEG 20000 became larger than in the conventional method A without the addition.

[1] = Table 1, agent in specimen diluent (HEPES buffer pH 7.5): NaCl 145 mM, NaBr 110, KBr 105, KCl 135, LiCl 135, guanidine HCl 90, guanidine phosphate 30, guanidine sulfamate 55, aminoguanidine HCl 90, arginine HCl 55, arginine methyl ester 17 mM, single measurement for conventional methods (2)-(5), ten times for the others
[2] = Table 2, specimen diluent HEPES buffer pH 7.5, NaCl 150 mM (A), NaCl 150 mM + PEG 20000 0.1% (B), aminoguanidine hydrochloride 90 mM, mean of three times measurement

Row | Structure (SMILES) | Coagulation time [1] [s] | coagulation time versus addition amount (FIG. 3) | Coagulation time [2] [s]
1 | [Br-].[K+] [Potassium bromide] | 11.4 |  | 
2 | Cl.N=C(N)NCCC[C@H](N)C(=O)O [Arginine hydrochloride] | 10.3 |  | 
3 | [Cl-].[Li+] [Lithium chloride] | 10.8 |  | 
4 | [Br-].[Na+] [Sodium bromide] | 11.3 | prolonged in an addition concentration-dependent manner | 
5 | N=C(N)N.O=P(O)(O)O [Guanidine phosphate] | 10.4 |  | 
6 | N=C(N)N [Guanidine hydrochloride] | 10.3 |  | 
7 | N=C(N)N.NS(=O)(=O)O [Guanidine sulfamate] | 11.2 |  | 
8 | [Cl-].[Na+] [Sodium chloride] | 10.7 | prolonged in an addition concentration-dependent manner | 11.6
9 | N=C(N)NN [Aminoguanidine hydrochloride] | 9.7 | prolonged in an addition concentration-dependent manner | 10.4
10 | COC(=O)[C@@H](N)CCCNC(=N)N [Arginine methyl ester] | 11 |  | 
11 | [Cl-].[K+] [Potassium chloride] | 10.8 |  | 
